# Results taken from patent US11000574B2, “Hyaluronic acid containing compositions for prevention of the formation of post-surgical scars and post-surgical adhesions” (PERGAMUM AB, priority 2009, dated 2021).
# Bridge positions count the residues as written; N and C are the ends. Peptide text beside a SMILES is read from it.
# Assays:
# [1] = In vitro release of PXL01 from sodium hyaluronate gel; format: physicochemical; settings: 6 mg/ml PXL01 in 1.5% sodium hyaluronate, 37° C., PBS pH 7.4, within 1 hour
# Protocol: (§1) PXL01 dissolved in sodium chloride solution was added to 2.5% sodium hyaluronate solution at a volume ratio of 2/5 PXL01 solution and 3/5 sodium hyaluronate solution, to obtain 1.5 or 6 mg/ml PXL01 in 1.5% sodium hyaluronate. The solutions were homogenized by drawing the mixtures several times through 2.1 mm diameter needles.
# 0.25 ml of the formulated product was placed into the well of the tissue culture plate (24-Flat Well Tissue Culture Plate, Techno Plastic Products AG), resulting in a thin film of approximately 1.3 mm. The plates were placed into thermostat (37° C.) for 1 h to allow the product to reach the temperature of 37° C. 0.5 ml of the release medium (PBS, pH 7.4) re-equilibrated at 37° C. was carefully layered over the surface of the gel and the tissue culture plates were transferred into a thermostatic shaker (60 rpm, 37° C.). At predetermined time intervals, 10 microl aliquots of the aqueous solution were withdrawn from the release media. The concentration of PXL01 released was monitored at wavelength of 230 nm using a spectrophotometric measurement. Because the measurement of absorbance at 230 nm could detect the peptide as well as dissolved sodium hyaluronate in the release medium, a control release medium was used which has the same amount of sodium hyaluronate without any PXL01 as that of sodium hyaluronate with the drug.
# [2] = system: post-surgical intra-abdominal adhesions; assay: Sidewall defect-cecum abrasion model in rat (post-surgical adhesion prevention); format: in vivo, Sprague-Dawley rats; settings: for adhesion formation compared with control group: rat, 6 days after surgery
# Protocol: Female Sprague-Dawley rats (200-250 g, Charles River Laboratories, Sulzfeldt, Germany) were kept in a 12 hours light-dark cycle and were cared for in accordance with regulations for the protection of laboratory animals. The study was performed after prior approval from the local ethical committee.
# Cecum abrasion and excision of the abdominal wall were performed to induce de novo adhesions as described previously (Harris et al. 1995. Analysis of the kinetics of peritoneal adhesion formation in the rat and evaluation of potential antiadhesive agents. Surgery 117, 663-669). Briefly, the rats were anaesthetized with isoflurane (Isoba®vet, Shering-Plough Animal Health, Farum, Denmark) and buprenorfin (48 microg/kg, Temgesic, Shering-Plough, Brussels, Belgium) was given as post-operative pain reliever. A 5-cm-long midline incision of the abdomen was performed and a rectangle full thickness injury (5 mm×25 mm) was made on the peritoneal wall through both the parietal peritoneum and the muscular fascia. Also, an area of the serous membrane on the both sides of the cecum, approximately 10 mm×15 mm, was gently rubbed using cotton gauze until petechial hemorrhages appeared. The rats were randomized to untreated control group or treated groups. Excessive blood from the injury was removed and the test substance was applied over the abraded areas using a syringe. The laparotomy wound was closed with a continuous suture and the skin was closed with metal clips (Appose ULC35W, TycoHealthcare Group LP, Norwalk, Conn., US). […] The abdomen was opened and the adhesions were scored by an evaluator blinded to the treatment. The incidence of adhesions between abdominal incision and the abraded cecum was quantified as a percentage of animals developing wall to wall adhesions connecting these injuries, in each group. […] Finally, the percentage of rats free from any abdominal adhesions was assessed in each group. Any possible signs of peritoneal inflammation (erythema and/or edema) or disrupted wound healing were recorded in connection to the necropsies. […]
# [3] = Solubility and stability of PXL01 in sodium hyaluronate; format: physicochemical
# Protocol: as §1
# PXL01 concentration and homogeneity in sodium hyaluronate were determined by high performance liquid chromatography with UV detector (Agilent model 1100) at 220 nm. The analytical column used was a Vydac 218TP (C18, 5 μm, 250×4.6 mm). The mobile phases used (0.1% TFA in water containing 1% acetonitrile (solvent A) and 0.1% TFA in acetonitrile (solvent B)) were run at a gradient with a flow rate of 1.0 ml/min. Diluted PXL01 standards were applied to create calibration curves.
# Samples were prepared by adding hyaluronidase solution (Hyaluronidase from Streptomyces hyalurolyticus, Sigma-Aldrich, St Louis, Mo.) with an enzyme activity of 500 units/ml to sample solutions. The mixtures were agitated for 2 h at room temperature and samples were diluted as needed with TFA in water, followed by additional mixing. The samples were centrifuged at 7000 rpm for 5 min before injection to the column.
compound,measurement,setting,value
CC[C@H](C)[C@H](NC(=O)[C@@H]1CSSC[C@H](NC(=O)[C@H](CCCCN)NC(=O)[C@@H](NC(=O)[C@H](C)NC(=O)[C@H](CCC(=O)O)NC(C)=O)[C@@H](C)O)C(=O)N[C@@H](Cc2ccccc2)C(=O)N[C@@H](CCC(N)=O)C(=O)N[C@@H](Cc2c[nH]c3ccccc23)C(=O)N[C@@H](CCC(N)=O)C(=O)N[C@@H](CCCNC(=N)N)C(=O)N[C@@H](CC(N)=O)C(=O)N[C@@H](CCSC)C(=O)N[C@@H](CCCNC(=N)N)C(=O)N[C@@H](CCCCN)C(=O)N[C@@H](C(C)C)C(=O)N[C@@H](CCCNC(=N)N)C(=O)NCC(=O)N2CCC[C@H]2C(=O)N2CCC[C@H]2C(=O)N[C@@H](C(C)C)C(=O)N[C@@H](CO)C(=O)N1)C(=O)N[C@@H](CCCCN)C(=O)N[C@@H](CCCNC(=N)N)C(N)=O [PXL01] (Ac-EATKCFQWQRNMRKVRGPPVSCIKR-NH2; disulfide 5-22),PXL01 released from the sodium hyaluronate gel formulation (cumulative drug released),[1],approximately 70%
same,adhesion formation compared with control group,"[2]; 3 mg of PXL01 in water solution, single dose in connection to the surgery",No significant reduction
same,adhesion formation compared with control group,"[2]; 3 doses of 1 mg of PXL01 in water solution (at operation, 24 and 48 h post-surgery)",marked reduction
same,"adverse events (listlessness, peritoneal inflammation, inhibition of wound healing)",[2]; rats treated with PXL01 at any concentration,No obvious adverse events
same,solubility in sodium hyaluronate,[3],readily soluble
same,stability in sodium hyaluronate,[3],sufficiently stable
